How the values were obtained:
Liver carboxylesterase 1 = target: T1, Liver carboxylesterase 1 (Homo sapiens, UniProt P23141); test: Inhibition of TGH
T1 sequence (P23141 whole entry): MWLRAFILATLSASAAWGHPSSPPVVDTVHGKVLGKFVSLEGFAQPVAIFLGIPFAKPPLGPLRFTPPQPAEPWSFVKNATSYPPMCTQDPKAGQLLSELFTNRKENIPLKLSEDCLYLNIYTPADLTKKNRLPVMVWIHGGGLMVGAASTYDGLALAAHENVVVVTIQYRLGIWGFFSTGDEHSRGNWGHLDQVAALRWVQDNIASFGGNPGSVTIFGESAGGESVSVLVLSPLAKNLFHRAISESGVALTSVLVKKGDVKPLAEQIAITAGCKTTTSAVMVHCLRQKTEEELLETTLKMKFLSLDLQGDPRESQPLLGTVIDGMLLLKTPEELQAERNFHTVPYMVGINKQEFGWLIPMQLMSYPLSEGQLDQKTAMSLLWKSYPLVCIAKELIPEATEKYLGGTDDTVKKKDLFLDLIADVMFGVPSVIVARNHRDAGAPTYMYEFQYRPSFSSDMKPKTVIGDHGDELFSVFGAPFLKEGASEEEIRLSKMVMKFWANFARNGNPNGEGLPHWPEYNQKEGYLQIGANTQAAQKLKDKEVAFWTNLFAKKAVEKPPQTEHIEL

[1] = Selectivity ratio of IC50 for KIAA1363 to IC50 for rat FAAH
[2] = target: T2, Neutral cholesterol ester hydrolase 1 (Homo sapiens, UniProt Q6PIU2); test: Inhibition of KIAA1363
T2 sequence (Q6PIU2 whole entry): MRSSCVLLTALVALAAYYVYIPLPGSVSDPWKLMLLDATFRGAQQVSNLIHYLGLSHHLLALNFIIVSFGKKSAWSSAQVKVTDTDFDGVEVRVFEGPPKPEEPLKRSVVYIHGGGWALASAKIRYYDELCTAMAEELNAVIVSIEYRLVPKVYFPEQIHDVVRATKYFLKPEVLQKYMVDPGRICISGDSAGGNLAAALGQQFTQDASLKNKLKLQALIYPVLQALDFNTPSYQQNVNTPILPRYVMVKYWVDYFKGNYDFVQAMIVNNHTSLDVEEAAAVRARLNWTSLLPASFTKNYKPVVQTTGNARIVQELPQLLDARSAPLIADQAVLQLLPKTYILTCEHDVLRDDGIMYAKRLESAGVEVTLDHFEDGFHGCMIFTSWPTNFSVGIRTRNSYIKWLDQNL

[3] = target: T3, Fatty-acid amide hydrolase 1 (Rattus norvegicus, UniProt P97612); test: Inhibition of rat FAAH
T3 sequence (P97612 whole entry): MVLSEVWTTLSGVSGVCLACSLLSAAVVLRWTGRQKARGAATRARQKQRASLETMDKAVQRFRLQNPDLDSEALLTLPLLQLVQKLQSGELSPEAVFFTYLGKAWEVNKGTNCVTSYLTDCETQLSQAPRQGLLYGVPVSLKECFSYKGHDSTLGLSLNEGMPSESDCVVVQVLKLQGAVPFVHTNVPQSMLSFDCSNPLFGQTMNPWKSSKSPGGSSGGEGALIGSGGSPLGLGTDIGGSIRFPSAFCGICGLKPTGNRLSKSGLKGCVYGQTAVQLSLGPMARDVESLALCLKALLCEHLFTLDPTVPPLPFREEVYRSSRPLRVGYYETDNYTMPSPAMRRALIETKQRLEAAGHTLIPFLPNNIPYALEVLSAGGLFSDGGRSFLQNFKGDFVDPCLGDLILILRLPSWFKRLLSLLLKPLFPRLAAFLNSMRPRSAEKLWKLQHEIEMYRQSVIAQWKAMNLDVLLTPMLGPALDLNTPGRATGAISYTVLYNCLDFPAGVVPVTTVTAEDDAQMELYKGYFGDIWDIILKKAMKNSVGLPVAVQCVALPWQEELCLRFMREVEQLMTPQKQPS

[4] = Selectivity ratio of IC50 for TGH to IC50 for rat FAAH

SMILES	IC50 (Liver carboxylesterase 1)	Ratio IC50 [1]	IC50 [2]	IC50 [3]	Ratio IC50 [4]
O=C(CCCCCCc1ccccc1)c1nc(C(F)(F)F)co1	60 nM	> 200	10000 nM	400 nM	–
O=C(CCCCCCc1ccccc1)c1nc(-c2ccncc2)co1	700 nM	1500	> 100000 nM	140 nM	5
O=C(O)c1cnc(C(=O)CCCCCCc2ccccc2)o1	–	> 100	–	900 nM	> 100
N#Cc1coc(C(=O)CCCCCCc2ccccc2)n1	30 nM	> 700	30000 nM	20 nM	1.5
O=C(CCCCCCc1ccccc1)c1nc(-c2ccccn2)co1	10000 nM	25	> 100000 nM	30 nM	330
O=C(O)c1coc(C(=O)CCCCCCc2ccccc2)n1	2500 nM	> 3000	> 100000 nM	500 nM	5
O=C(CCCCCCc1ccccc1)c1ncc(C(F)(F)F)o1	–	> 1400	–	70 nM	3
